Results reported in patent US20260042755A1, “GPR6 INVERSE AGONISTS” (MapLight Therapeutics, Inc., priority 2022, published 2026).

Legend:
Format in all cases: cell-based
GPR6 = molecular target: T1, GPR6 (Homo sapiens, UniProt P46095); assay: GPR6 antagonist functional cAMP assay (LANCE Ultra cAMP TR-FRET, CHO cells stably expressing GPR6)
T1 construct: expressed in transfected cells; host or cells: CHO cells
Outline: (§1)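 Read-out was TR-FRET cAMP signal at 665 nm after 1 h at room temperature, following 45 min compound exposure at 37 °C. Assay buffer contained 0.1% BSA and 150 μM Ro 20-1724. Antagonist IC50s were fitted with a 4-parameter logistic against DMSO and reference controls.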

hERG = molecular target: T2, hERG (Homo sapiens, UniProt Q12809); assay: hERG assay (whole-cell manual patch clamp, stably-transfected HEK293/hERG cells); details: tail current, test concentrations 0.1-30 μM, read-out: hERG Assay GMean IC50
T2 construct: expressed in transfected cells; host or cells: HEK293
Procedure: Stably-transfected HEK293/hERG cells were seeded on poly-ornithine coated glass coverslip and incubated 3-24 h in 35 mm dishes before transferring to the recording chamber. The recording chamber on the stage of a Nikon inverted microscope is continuously perfused with extracellular solution (1-1.5 ml/min). Electrodes were pulled, polished and filled with intracellular solution (tip resistance ˜3-5MΩ). After establishing a tight seal (resistances 1GΩ) between pipette tip and cell membrane, a brief suction is applied to rupture the patched membrane to establish the whole-cell patch clamp configuration. Cells are voltage clamped at −80 mV. The cell was first depolarized to +40 mV for 2s to activate hERG current, and then clamped to −40 mV for 3s to record a tail current. Test articles in various concentrations controlled by a voltage command 8 pinch valve superfusion system were delivered to the proximity of the test cell to record hERG current changes under different conditions with recording done within 30 min.
Intracellular solution (in mM): 130 KCl, 1.0 MgCl2, 5.0 EGTA, 10 HEPES, 5.0 Mg-ATP; adjust pH to 7.25 with 1M KOH; osmolarity approximately at 280 mOsm. Extracellular solution (in mM): 137 NaCl, 1.8 CaCl2, 1.0 MgCl2, 4.0 KCl, 10 Glucose, 10 HEPES; adjust pH to 7.4 with 1 M NaOH; osmolarity approximately at 295 mOsm. Original compound was dissolved in 100% DMSO, then serial diluted with DMSO to respective 1000× of test concentration to make DMSO sub-stocks. The DMSO sub-stocks were diluted 1000 fold to testing solutions (0.1, 0.3, 1, 3, 10, and 30 μM) using extracellular solution. Rapid exposure to test compound was achieved by utilizing a multichannel solenoid-operated flow system. Testing compounds were sequentially applied in increasing order of concentrations after initial application of vehicle solution on EPC-10 manual patch clamping device with the following: • Amplifier: HEKA EPC-10 USB • Nikon Ti-S Inverted Microscope • MP-285/R micromanipulator system • DAD-8VCPP voltage command Pinch valve superfusion system • TMC Shock Absorption Platform • Peristaltic Pump • Sutter Puller • Vapor pressure osmometer • Temperature controller

GPR3 = molecular target: T3, GPR3 (Homo sapiens, UniProt P46089); assay: GPR3 antagonist functional cAMP assay (LANCE Ultra cAMP TR-FRET, CHO cells stably expressing GPR3)
T3 construct: expressed in transfected cells; host or cells: CHO cells
Outline: as §1

[1] = CHO cells stably expressing GPR6, cAMP assay
[2] = CHO cells stably expressing GPR3, cAMP assay
[3] = procedure as described in Example 24
[4] = CHO cells stably expressing GPR6, cAMP assay (Example 24)
[5] = CHO cells stably expressing GPR3, cAMP assay (Example 24)

T2 sequence (Q12809 whole entry): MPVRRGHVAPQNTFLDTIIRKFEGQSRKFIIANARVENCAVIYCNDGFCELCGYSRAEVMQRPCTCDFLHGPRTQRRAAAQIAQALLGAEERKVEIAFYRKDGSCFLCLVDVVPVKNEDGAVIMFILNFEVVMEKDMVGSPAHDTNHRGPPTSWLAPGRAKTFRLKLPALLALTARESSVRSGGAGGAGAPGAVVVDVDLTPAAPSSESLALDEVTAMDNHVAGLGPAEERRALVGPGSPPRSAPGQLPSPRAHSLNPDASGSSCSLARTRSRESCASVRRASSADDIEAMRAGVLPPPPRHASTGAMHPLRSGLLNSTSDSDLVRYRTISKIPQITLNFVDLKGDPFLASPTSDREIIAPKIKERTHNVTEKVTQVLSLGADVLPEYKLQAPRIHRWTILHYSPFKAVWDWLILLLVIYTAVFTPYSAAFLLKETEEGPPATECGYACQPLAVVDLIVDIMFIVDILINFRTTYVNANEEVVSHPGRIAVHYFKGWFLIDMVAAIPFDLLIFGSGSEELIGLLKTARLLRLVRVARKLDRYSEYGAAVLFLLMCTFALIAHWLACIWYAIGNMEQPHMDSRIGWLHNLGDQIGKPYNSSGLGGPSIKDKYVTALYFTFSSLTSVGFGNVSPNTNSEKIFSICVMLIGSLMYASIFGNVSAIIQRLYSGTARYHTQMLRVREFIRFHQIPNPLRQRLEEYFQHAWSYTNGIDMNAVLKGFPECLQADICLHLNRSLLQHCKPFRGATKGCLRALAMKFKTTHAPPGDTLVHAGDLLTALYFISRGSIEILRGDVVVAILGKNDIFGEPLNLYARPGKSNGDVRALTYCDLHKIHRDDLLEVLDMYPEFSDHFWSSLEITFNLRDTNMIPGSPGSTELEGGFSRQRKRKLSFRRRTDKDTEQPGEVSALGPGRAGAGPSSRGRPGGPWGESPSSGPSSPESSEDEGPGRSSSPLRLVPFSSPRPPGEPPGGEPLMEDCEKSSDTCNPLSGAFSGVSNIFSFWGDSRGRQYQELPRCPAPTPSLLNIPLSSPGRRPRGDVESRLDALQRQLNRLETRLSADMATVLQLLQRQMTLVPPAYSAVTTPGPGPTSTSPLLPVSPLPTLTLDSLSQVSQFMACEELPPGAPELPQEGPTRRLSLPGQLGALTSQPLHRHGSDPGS
T3 sequence (P46089 whole entry, species assumed): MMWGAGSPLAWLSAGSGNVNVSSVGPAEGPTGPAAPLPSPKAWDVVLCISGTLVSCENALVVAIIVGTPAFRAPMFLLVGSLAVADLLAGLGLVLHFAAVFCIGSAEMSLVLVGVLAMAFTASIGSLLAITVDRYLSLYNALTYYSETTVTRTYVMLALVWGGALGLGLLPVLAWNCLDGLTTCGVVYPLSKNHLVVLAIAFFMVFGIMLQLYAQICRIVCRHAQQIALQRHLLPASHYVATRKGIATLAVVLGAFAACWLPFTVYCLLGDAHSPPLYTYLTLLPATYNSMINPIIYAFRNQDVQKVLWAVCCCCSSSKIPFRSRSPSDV
T1 sequence (P46095 whole entry): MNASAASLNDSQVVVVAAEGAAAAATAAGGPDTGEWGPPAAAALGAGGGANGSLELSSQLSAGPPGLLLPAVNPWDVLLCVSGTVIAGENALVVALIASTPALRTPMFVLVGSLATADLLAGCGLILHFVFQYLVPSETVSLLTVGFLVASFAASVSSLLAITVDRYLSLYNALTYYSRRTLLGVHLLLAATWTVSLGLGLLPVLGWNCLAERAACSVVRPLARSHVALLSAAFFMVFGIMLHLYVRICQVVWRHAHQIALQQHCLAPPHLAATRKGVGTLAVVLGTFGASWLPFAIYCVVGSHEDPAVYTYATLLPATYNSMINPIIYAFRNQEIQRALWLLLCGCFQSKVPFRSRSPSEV

Row | IC50 (GPR6; procedure of Example 24) [nM] | IC50 (GPR3; procedure of Example 24) [nM] | SMILES | IC50 (hERG) [nM] | also measured
1 |  |  | CC(C)(O)[C@@H](O)c1cc2nc(N3CCN(Cc4ccc(F)cc4F)CC3)c(-c3cnn(C4CC4)c3)nc2cn1 (single isomer, unassigned) [Compound 577] | 13600 | IC50 (GPR6; [1]): 100 to 1000 nM; IC50 (GPR3; [2]): 1000 to 30000 nM
2 | 100 to 1000 | 1000 to 30000 | CC(C)(O)[C@](C)(O)c1cc2nc(-c3cnn(CF)c3)c(N3CCN(Cc4ccccc4F)CC3)nc2cn1 (single isomer, unassigned) [Compound 716] | 24300 | 
3 | 100 to 1000 | 1000 to 30000 | CC(C)(O)C(O)c1cc2nc(-c3cnn(CF)c3)c(N3CCN(Cc4ccccc4F)CC3)nc2cn1 (single isomer, unassigned) [Compound 707] | > 30000 | 
4 |  |  | CCn1cc(-c2nc3cnc([C@H](O)C(C)(C)O)cc3nc2N2CCN(Cc3ccc(F)cc3F)CC2)cn1 (single isomer, unassigned) [Compound 575] | 21700 | IC50 (GPR6; [1]): < 100 nM; IC50 (GPR3; [2]): 1000 to 30000 nM
5 | 100 to 1000 | 1000 to 30000 | CC(=O)N1CCc2nc(N3CCC(Oc4ccc(F)cc4F)CC3)c(-c3ccc(F)c(N)n3)nc2C1 [Compound 372, 1-{3-(6-amino-5-fluoro-2-pyridyl)-2-[4-(2,4-difluorophenoxy)-1-piperidyl]-5,6,7,8-tetrahydro-1,4,6-triaza-6-naphthyl}-1-ethanone] |  | 
6 |  |  | COc1cc(-c2nc3c(nc2N2CCC(Oc4ccc(F)cc4F)CC2)CCN(C(C)=O)C3)ccn1 [Compound 20, 1-{2-[4-(2,4-difluorophenoxy)piperidin-1-yl]-3-(2-methoxypyridin-4-yl)-5H,6H,7H,8H-pyrido[3,4-b]pyrazin-6-yl}ethan-1-one] |  | IC50 (GPR6; [3]): 100 to 1000 nM; IC50 (GPR3; [3]): 1000 to 30000 nM
7 |  |  | CC(=O)N1CCc2nc(N3CCC(Oc4ccc(F)cc4F)CC3)c(-c3cnc4n3CCNC4)nc2C1 [Compound 24, 1-(2-(4-(2,4-difluorophenoxy)piperidin-1-yl)-3-(5,6,7,8-tetrahydroimidazo[1,2-a]pyrazin-3-yl)-7,8-dihydropyrido[3,4-b]pyrazin-6(5H)-yl)ethan-1-one] |  | IC50 (GPR6; [3]): 1000 to 30000 nM; IC50 (GPR3; [3]): 100 to 1000 nM
8 |  |  | CC(=O)N1CCc2nc(N3CCC(=Cc4ccc(F)cc4F)CC3)c(-c3cnn(C)c3)nc2C1 [Compound 542, 1-(2-(4-(2,4-difluorobenzylidene)piperidin-1-yl)-3-(1-methyl-1H-pyrazol-4-yl)-7,8-dihydropyrido[3,4-b]pyrazin-6(5H)-yl)ethan-1-one] |  | IC50 (GPR6; [1]): < 100 nM; IC50 (GPR3; [2]): 100 to 1000 nM
9 |  |  | CC(=O)N1CCc2nc(N3CCC(Oc4ccc(F)cc4F)CC3)c(-c3cnn(CCC#N)c3)nc2C1 [Compound 73, 3-(4-{6-acetyl-2-[4-(2,4-difluorophenoxy)piperidin-1-yl]-5H,6H,7H,8H-pyrido[3,4-b]pyrazin-3-yl}-1H-pyrazol-1-yl)propanenitrile] |  | IC50 (GPR6; [4]): 100 to 1000 nM; IC50 (GPR3; [5]): 1000 to 30000 nM
10 |  |  | O=C(C1COC1)N1CCc2nc(N3CCC(Oc4ccc(F)cc4F)CC3)c(-c3cn[nH]c3)nc2C1 [Compound 184, 4-(2,4-difluorophenoxy)-1-[6-(oxetane-3-carbonyl)-3-(1H-pyrazol-4-yl)-5H,6H,7H,8H-pyrido[3,4-b]pyrazin-2-yl]piperidine] |  | IC50 (GPR6; [4]): < 100 nM; IC50 (GPR3; [5]): 1000 to 30000 nM
11 | 100 to 1000 | 1000 to 30000 | Cn1cc(-c2nc3cc(C(C)(O)CO)ncc3nc2N2CCC(Oc3ccc(F)cc3F)CC2)cn1 (stereo not shown) [Compound 645, 2-{3-[4-(2,4-difluorophenoxy)-1-piperidyl]-2-(1-methyl-4-pyrazolyl)-1,4,6-triaza-7-naphthyl}-1,2-propanediol] |  | 
12 | 100 to 1000 | 1000 to 30000 | CC(C)(O)C(=O)c1cc2nc(N3CCC(Oc4ccc(F)cc4F)CC3)c(-c3cnn(CF)c3)nc2cn1 [Compound 621, 1-{2-[4-(2,4-difluorophenoxy)-1-piperidyl]-3-[1-(fluoromethyl)-4-pyrazolyl]-1,4,6-triaza-7-naphthyl}-2-hydroxy-2-methyl-1-propanone] |  | 
